The text below walks through data of ChEMBL document CHEMBL2016461, “A new pancreatic lipase inhibitor from Broussonetia kanzinoki” (Bioorg Med Chem Lett, 2012).

Broadly, the IC50 is the midpoint of a concentration-inhibition curve. What is called inhibition is the change of the read-out against control, counted positive when it falls.

Active and inactive are the calls of the source. The rule behind the calls is not given here.

Assay [1] deals with T1, Pancreatic triacylglycerol lipase (Sus scrofa, UniProt P00591).
T1 sequence (P00591 whole entry): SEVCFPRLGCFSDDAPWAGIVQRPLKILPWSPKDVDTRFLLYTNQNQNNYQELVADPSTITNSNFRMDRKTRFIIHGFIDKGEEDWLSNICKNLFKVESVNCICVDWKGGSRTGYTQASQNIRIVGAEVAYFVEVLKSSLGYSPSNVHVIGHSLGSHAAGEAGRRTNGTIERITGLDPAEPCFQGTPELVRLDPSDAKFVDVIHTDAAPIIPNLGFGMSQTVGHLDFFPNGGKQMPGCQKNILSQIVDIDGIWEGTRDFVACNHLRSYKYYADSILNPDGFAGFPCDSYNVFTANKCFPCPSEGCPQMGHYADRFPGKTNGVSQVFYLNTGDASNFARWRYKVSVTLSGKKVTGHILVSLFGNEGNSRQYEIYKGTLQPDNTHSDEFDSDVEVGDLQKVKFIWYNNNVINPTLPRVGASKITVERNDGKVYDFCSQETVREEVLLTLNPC
Put plainly: Inhibition of porcine pancreatic lipase using p-nitrophenylbutyrate as substrate preincubated for 15 mins prior substrate addition measured after 15 mins by spectrophotometry.

Assay [2] concerns 3T3-L1. Briefly: Antiadipogenic activity in mouse 3T3L1 cells assessed as cell differentiation measuring inhibition of fat accumulation at 100 uM after 8 days by oil red O-staining based spectrophotometry relative to control. Conditions: 3T3-L1, 192 h. Type of assay: functional.
Assay [3] concerns the target T2, Pancreatic triacylglycerol lipase (Sus scrofa) (UniProt P00591).
T2 sequence (whole entry): T1 sequence (P00591 whole entry)
Briefly: Inhibition of porcine pancreatic lipase using p-nitrophenylbutyrate as substrate at 100 uM preincubated for 15 mins prior substrate addition measured after 15 mins by spectrophotometry.

The target in assay [4] is T2, Pancreatic triacylglycerol lipase (Sus scrofa). Conditions: 1 uM.
Description: Inhibition of porcine pancreatic lipase using p-nitrophenylbutyrate as substrate at 1 uM preincubated for 15 mins prior substrate addition measured after 15 mins by spectrophotometry
For assay [5] the target is unchanged. Put plainly: Non-competitive inhibition of porcine pancreatic lipase using p-nitrophenylbutyrate as substrate preincubated for 15 mins prior substrate addition measured after 15 mins by Lineweaver-Burk plot analysis.
Assay [6] has as its system 3T3-L1. Put plainly: Antiadipogenic activity in mouse 3T3L1 cells assessed as cell differentiation measuring fat accumulation at 100 uM after 8 days by oil red O-staining based spectrophotometry relative to control. Type of assay: functional.

In assay [1], `COc1cc(O)ccc1CCCc1ccc(O)cc1` [BROUSSONIN B] displayed an IC50 of 75.4 µM. Also, the inhibition at 100 µM in the assay on 3T3-L1 [2] was determined as 48%. In addition, the inhibition in assay [3] stood at 40.4%.

The compound `CCCCCCCCCCC[C@@H](C[C@@H]1OC(=O)[C@H]1CCCCCC)OC(=O)[C@H](CC(C)C)NC=O` returned an inhibition in assay [4] of 60.4%.

In turn, `COc1ccc(C2CCc3ccc(O)cc3O2)cc1O` (stereo not drawn) came in with an IC50 in assay [1] of more than 100 µM. The compound also yielded an inhibition in assay [3] of 24.8%.

For `COC1=CC(=O)C=CC1(O)CCCc1ccc(O)cc1` (stereo not drawn) [BROUSSONONE A], the inhibition entry in assay [5] was “Active”. In assay [1], this compound gave an IC50 of 28.4 µM. The Activity in the assay with 3T3-L1 [6] turned out to be 66%. Further, in assay [3], the inhibition came out at 71.9%.

Compound `COc1ccc(-c2oc3cc(O)ccc3c(=O)c2O)cc1` had an IC50 in assay [1] of more than 100 µM. Besides, in assay [3], the inhibition came to 21.8%.

In assay [1], `COc1ccc(-c2oc3cc(O)ccc3c(=O)c2O)cc1O` came in with an IC50 of more than 100 µM. In addition, the inhibition in assay [3] is 38.2%.

With `COc1ccc(CCCc2ccc(O)cc2)c(O)c1` [BROUSSONIN A], the IC50 in assay [1] amounted to 98.7 µM. In assay [3], this compound registered an inhibition of 50.7%.

In assay [1], `Oc1ccc(C2CCc3ccc(O)cc3O2)cc1` (stereo not drawn) yielded an IC50 of 85.1 µM. Further, the inhibition in assay [3] worked out at 55.6%.
